{"source": "patent US7192973B2", "about": "“Piperidine derivatives and their use as modulators of chemokine receptor activity (especially CCR5)” (AstraZeneca AB, priority 2001, dated 2007)", "target": "recombinant human CCR5 receptor (Homo sapiens, UniProt P51681)", "sequence (P51681 whole entry)": "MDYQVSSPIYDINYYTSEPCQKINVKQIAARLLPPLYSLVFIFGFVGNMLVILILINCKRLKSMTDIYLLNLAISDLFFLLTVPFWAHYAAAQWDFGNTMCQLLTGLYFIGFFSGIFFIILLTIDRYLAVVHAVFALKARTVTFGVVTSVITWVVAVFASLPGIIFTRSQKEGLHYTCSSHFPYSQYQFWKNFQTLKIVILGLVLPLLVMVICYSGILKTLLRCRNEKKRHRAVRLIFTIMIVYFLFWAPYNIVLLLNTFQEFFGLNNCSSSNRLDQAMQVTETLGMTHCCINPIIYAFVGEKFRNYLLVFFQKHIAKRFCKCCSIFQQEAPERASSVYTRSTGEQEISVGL", "assay": "in vitro radioligand binding assay: inhibition of the binding of iodinated MIP-1α", "settings": "membranes from Chinese hamster ovary cells expressing CCR5; 0.1 nM iodinated MIP-1α; average if tested more than once", "experimental": "The ability of compounds to inhibit the binding of MIP-1α was assessed by an in vitro radioligand binding assay. Membranes were prepared from Chinese hamster ovary cells which expressed the recombinant human CCR5 receptor. These membranes were incubated with 0.1 nM iodinated MIP-1α, scintillation proximity beads and various concentrations of the compounds of the invention in 96-well plates. The amount of iodinated MMP-1α bound to the receptor was determined by scintillation counting. Competition curves were obtained for compounds and the concentration of compound which displaced 50% of bound iodinated MIP-1α was calculated (IC50)."}
{"smiles": "CCN(C(=O)Cc1ccc(S(C)(=O)=O)cc1)C1CCN(CCC(c2ccccc2)N2CCN(C)CC2)CC1", "note": "(centres unmarked) [6 of Table I]", "values": [{"measurement": "IC50", "value": 363, "unit": "nM"}]}
{"smiles": "CCN(C(=O)Cc1ccc(S(C)(=O)=O)cc1)C1CCN(CCC(c2ccccc2)N2CCN(S(=O)(=O)CC(F)(F)F)CC2)CC1", "note": "(centres unmarked) [15 of Table II]", "values": [{"measurement": "IC50", "value": 5.62, "unit": "nM"}]}
